How the values were obtained:
E-RFC = assay: Increase in no. E-RFC in vitro after incubation with L-Glu-L-Trp (breast cancer patients); type: cell-based, human
Method: Thirty six patients with breast cancer were treated with conventional radiation therapy (i.e., single doses of about 2-3 Gy daily for 10 days; total cumulative patient dose of 20-30 Gy). Following radiotherapy the patients were treated with L-Glu-L-Trp by injection of daily dosages im of 100 μg. The patients had been previously treated with radiation therapy (single doses 2 Gy; total dose 20-30 Gy).
Ram erythrocytes (E) were washed 4× in saline (2000 rpm/10 min.) and suspended at a final concentration of 1% in Medium 199. For determinations of the percentage of E-rosette forming T-lymphocytes (E-RFC) in a sample, 0.1 mL of a prepared lymphocyte suspension (2.5×10^6/ml) was incubated with 0.1 mL of the 1% ram erythrocyte suspension at 37° C. for 10 min., centrifuged at 800-1000 rpm for 5 min., maintained at 4° C. for 2 hrs., and finally resuspended and counted in a Goryaev chamber. Activated T-lymphocytes (i.e., having increased E-RFC capacity) were determined by mixing the test lymphocyte suspension with E, immediately centrifuging for 5 min. at 800-1000 rpm, resuspending the cells and counting the rosettes formed in a Goryaev chamber.

Frostbite = assay: Frostbite; design: species or system human; settings: in vivo
Method: Seventeen patients with frostbite of the extremities were treated with L-Glu-L-Trp either im or intranasally. Eleven patients constituted a control group.

[1] = Ophthalmic diseases, parabulbar or conjunctival instillation; type: in vivo, human
Method: Forty one patients (41; 17 men and 24 women; ranging in age from 17 to 68 years) with various eye diseases of infectious and non-infectious origin were treated with L-Glu-L-Trp. Patients having the following infectious, and non-infectious, ophthalmic diseases were entered into the trial: a) nonviral conjunctivitis, keratitis, chronic uveitis, persistent sties, and, focal chorioretinitis; and, b) retinal pigment dystrophy, Grenblad-Stranberg syndrome, and maculophathy, respectively. Five patients were Class II invalids due to vision impairment, 4 were Class III, and 32 were impaired but not invalid. […] L-Glu-L-Trp was administered daily in a single 0.1 mL (10 μg) dose by the parabulbar route (Group 1; n=21), or alternatively one drop of the dipeptide solution (5 μg) was delivered into the conjunctival cavity twice daily on each of 5 consecutive days (Group 2; n=20). Thirty six patients undergoing conventional therapy served as a control group (Group 3; n=36).
Clinical diagnoses of patients entered into Group 1 were as follows: 4 subjects had diagnosed adenoviral conjunctivitis; 2 subjects, recurring eyelid sties; 3 subjects, chronic serous-plastic uveitis; 3 subjects, central chorioretinitis; 5 subjects, central retinal dystrophy in both eyes; 4 subjects, pigment degeneration of the retina.
Clinical diagnoses of patients entered into Group 2 were as follows: namely, 7 subjects had diagnosed chronic serous-plastic uveitis, and 13 subjects adenoviral conjunctivitis.
Vision was assessed using standard measurements: i.e., field of vision, visual acuity, electrophysiological indices. Ophthalmascopic examination was used to evaluate and score corneal epithelial integrity, extent of edema and infiltration of the cornea (all strata), uveitis, retinal inflammation (edema, focal and peripheral changes, exudation, hemorrhage, plasmohemorrhagia), and expansion in the vitreous body. Immune parameters in peripheral blood were also assessed. Following treatment, the trial subjects were followed for not less than 12 months.

[2] = Drug allergies to antibiotics; design: species or system human; settings: in vivo
Method: L-Glu-L-Trp was administered to 76 patients having clinical histones of allergies to antibiotics, during the period of administration of the antibiotic. A control group consisted of 43 patients with similar antibiotic drug allergies. L-Glu-L-Trp was administered im on a daily basis for 5-10 days at a dosage of 100 μg, or alternatively, intranasally at a dosage of 1 μg/kg over the same 5-10 day period. […] Allergic reactions were pronounced in the control group with signs of drug intolerance.

Bone fractures = assay: Bone fractures; design: species or system human; settings: in vivo
Method: L-Glu-L-Trp was applied to 44 patients with bone fractures of various origin. The control group comprised 28 patients. L-Glu-L-Trp was administered intramuscularly or intranasally in a single dose of 100 μg daily for 10 days.

Dengue virus = assay: Dengue Protocol B; design: species or system human; settings: in vivo
Method: Sixty Dengue virus infected patients (60) were entered into the trial; 36 were treated with L-Glu-L-Trp and 24 were treated using conventional therapy (i.e., controls).

[3] = Frequently ill children with respiratory infection, asthma and allergy (Protocol C); type: in vivo, human
[4] = tested on: E-rosette forming (CD2^+) T-lymphocytes; assay: In vitro incubation of the children's lymphocytes: E-rosette forming (CD2+) T-lymphocytes; type: cell-based, human
[5] = After Combination L-Glu-L-Trp Therapy
[6] = After L-Glu-L-Trp Combination Therapy
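For B-Lymphocytes in this document: hospitalized children with severe pneumonia, thrombohemorrhagic syndrome plus secondary immune deficiency, lab values taken before and after treatment versus healthy normal controls, comparison group given antibiotic therapy alone.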
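For IgA in this document: hospitalized children with severe pneumonia, thrombohemorrhagic syndrome plus secondary immune deficiency, lab values taken before and after treatment versus healthy normal controls, comparison group given antibiotic therapy alone.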
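For IgG in this document: hospitalized children with severe pneumonia, thrombohemorrhagic syndrome plus secondary immune deficiency, lab values taken before and after treatment versus healthy normal controls, comparison group given antibiotic therapy alone.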
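For IgM in this document: hospitalized children with severe pneumonia, thrombohemorrhagic syndrome plus secondary immune deficiency, lab values taken before and after treatment versus healthy normal controls, comparison group given antibiotic therapy alone.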

Substance: L-Glu-L-Trp
- Increase in no. E-RFC in vitro after incubation with L-Glu-L-Trp (E-RFC; cells taken After L-Glu-L-Trp therapy): 1.27 ± 0.14
- Increase in no. E-RFC in vitro after incubation with L-Glu-L-Trp (E-RFC; cells taken After Radiotherapy): 1.19 ± 0.13
- Increase in no. E-RFC in vitro after incubation with L-Glu-L-Trp (E-RFC; cells taken Before Radiotherapy): 1.23 ± 0.15
- Clinical outcome (Frostbite): Rapid healing and restoration of tissue integrity
- Patients with “good response” ([1]; Group 1, parabulbar): 9
- Patients with “marked favorable response” ([1]; Group 1, parabulbar): 9
- Patients with “good response” ([1]; Group 2, instillation): 2
- Patients with “marked favorable response” ([1]; Group 2, instillation): 18
- Laboratory effects ([1]; in vivo): increase in the number of circulating peripheral blood B- and T-lymphocytes
- Patients with “poor response” ([1]; in vivo): 3
- Subjects in whom treatment was found effective ([1]; infectious eye diseases): 66.7%
- Patients with marked positive response ([1]; infectious eye diseases, parabulbar introduction): 75%
- Patients with good response ([1]; instillation): 10%
- Patients with marked positive response ([1]; instillation): 90%
- Faster recovery than control group, adenoviral conjunctivitis ([1]; marked responses): 10 to 13 days
- Rise in visual acuity, chronic serous-plastic uveitis ([1]; marked responses): > 0.1
- Patients with good response ([1]; parabulbar introduction): 15%
- Patients in whom development of allergic reactions was prevented [2]: 70%
- Clinical outcome (Bone fractures): prevented the development of infectious complications, reduced pain syndrome and treatment duration
- Clinical outcome (Dengue virus): reduction of fever, more rapid reduction of toxic symptoms
- Children with a decrease in the number of respiratory infections ([3]; 6-12 months): 92.9%
- T-lymphocytes in peripheral blood ([3]; after first course): statistically significant increase was noted in both the absolute number and percentage of T-lymphocytes
- Reduction in attacks of bronchial asthma ([3]; asthma patients): 4.2 fold
- Average reduction in the number of infections ([3]; in vivo): 3.6 fold
- Decrease of average length of illness ([3]; in vivo): 4 to 5 days
- Patients in whom food allergies disappeared ([3]; in vivo): 67.8%
- Percentage of E-rosette forming (CD2+) T-lymphocytes [4]: increase in the percentage of E-rosette forming (CD2^+) T-lymphocytes
- B-Lymphocytes [5]: 0.84 ± 0.06 ×10^9/L
- B-Lymphocytes % Normal Value [5]: (175%)
- IgA [5]: 67 ± 4.8
- IgA % Normal Value [5]: (163%)
- IgG [5]: 138 ± 5.6
- IgG % Normal Value [5]: (97%)
- IgM [5]: 153 ± 6.9
- IgM % Normal Value [5]: (89%)
- Leukocytes [5]: 11.0 ± 0.01 ×10^9/L
- Leukocytes % Normal Value [5]: (98%)
- Lymphocytes [5]: 0.36 ± 0.01 ×10^9/L
- Lymphocytes % Normal Value [5]: (116%)
- T-Lymphocytes [5]: 1.1 ± 0.01 ×10^9/L
- T-Lymphocytes % Normal Value [5]: (167%)
- ATIII [6]: 85 ± 2.1 % of normal
- Clotting time (citrated whole blood-recalcified) [6]: 129 ± 2.3^
- FDP [6]: 96 ± 6.7 µg/mL
- Fibrinogen Concentration [6]: 4.2 ± 0.4 g/L
- Fibrinolytic Activity [6]: 186 ± 11.5 min
- Hagemann factor dependent fibrinolysis [6]: 72 ± 6.8
- Kaolin-Cephalin clotting time [6]: 58 ± 1.2
- Prothrombin time [6]: 22 ± 0.1
- Thrombotest [6]: 33 ± 1.2
- Whole blood clotting time [6]: 465 ± 16.2 s
